Measured values published in patent US11920125B2, “Methods and agricultural compositions for preventing or controlling plant diseases” (Tenfold Technologies, LLC, priority 2017, dated 2024).

Key:
Pythium irregulare = assay: Pot assay, bacterial isolates with or without fungicide Satori for control of Pythium irregulare on soybean; type: in vivo
Experimental: In order to test the performance of bacterial isolates, with or without the presence of the fungicide Satori® (active ingredient is azoxystrobin), samples were applied as simulated in-furrow by pipetting in 1 ml over each seed after the seeds were placed in a 1 cm deep depression. The combination was prepared by combining each bacterial whole broth (MS1479, MS2379, MS2414, or MS2820) (which was grown in GB6-M8) with an equal volume (1:1) of Satori®. The agar slurry inoculation method was used after blending two agar cultures of P. irregulare in 200 ml RO water and then mixed with 4 L of peat-lite mix in a cement mixer. Five soybean seeds (genotype WS2620) were sown in each pot with 1 ml treatment over each seed (in-furrow simulation). Then the pots were incubated at 16° C. for 1 week and then 23° C. for another week before evaluation. The disease severity scale: 1=80-100%, 2=60-79%, 3=40-59%, 4=20-39%, 5=1-19%, and 6=0% damaged roots. (Table 16).

R. solani = assay: Pot assay, microbial drench treatments on Ozark soybean seedlings in pots infested with R. solani; type: in vivo; conditions: chemical control at 0.06 g/lb of soybean seeds
Experimental: In pot assays, WB or its dilutions were applied as a seed coating or as a a simulated in-furrow application in pots containing soil inoculated with the pathogen. Measurements of the percent of emergence, plant growth stage, and disease rating were used to assess biocontrol efficacy. Whole broth (WB) or WB dilutions were applied either as a simulated in-furrow treatment or a seed treatment applied to soybean seed. For simulated in-furrow application, 1 ml of biocontrol treatment or negative and positive controls was pipetted over the seed placed in 0.5 cm deep depressions made in peat-lite mix potting medium inoculated with the pathogen and prior to covering with the potting medium. Seed treatments were applied by coating soybean seed with the biocontrol and control treatments prior to planting into an inoculated potting medium. The negative control was reverse osmosis-purified (RO) water applied to seed in inoculated pots. The positive controls were Satori® (azoxystrobin) and Subtilex® (Bacillus subtilis strain MBI 600) applied at the labelled rates. In addition, a mock-inoculated treatment without pathogen inoculation was included in each test. Inoculation was done by thoroughly mixing 1 L of a slurry, made by blending two fully Rhizoctonia solani-colonized potato dextrose cultures in 200 ml RO water, with 4 L peat-lite mix (e.g., Sunshine LC1 potting mix) using a cement mixer. Experimental units were five seeds per pot and the treatments were arranged in a completely random design with four replicates. The tests were conducted on light carts illuminated with LED lamps (16 hour day/8 hour night) for 7-10 days at 26-28° C. The pots were irrigated as needed with RO water. Measurements of the percent emergence, plant growth stage (Munger, et al., 2008), and disease severity rating (0, no disease, to 5, dead plant) were collected from each plant at the end of each test, and the means of the experimental units were analyzed using JMP version 11 (SAS, Cary, NC).
In a separate pot assay, treatments were applied directly as a drench.

Rhizoctonia = Rhizoctonia control field trial, soybean seed treatment, Fisher, Indiana; conditions: isolates (GB6-M) 20 μl WB/Seed; Fludioxonil 0.02 mg/Seed
Experimental: For all treatments, the target concentration is 20 μl water/seed, which corresponds to 60 ml/460 g seeds. Sixty (60) ml liquid was added to every 460 g soybean seeds for a total of six times. Each time, 10 ml of liquid was added to the 460 g seeds and mixed for 15 seconds. Coated seeds were dried for 5-10 minutes under ventilation between the additions. Final coated seeds were dried overnight in a biocontainment hood.

Structure (SMILES)	Plant development (Pythium irregulare; five soybean seeds per pot, 1 ml treatment over each seed)	Plant emergence (Pythium irregulare; five soybean seeds per pot, 1 ml treatment over each seed, 16° C. 1 week then 23° C. 1 week)	Disease severity (Pythium irregulare; scale 1=80-100%, 2=60-79%, 3=40-59%, 4=20-39%, 5=1-19%, 6=0% damaged roots (higher = healthier))	Disease Rating (R. solani; 0 = no disease to 5 = plant dead, 7 days)	# Emerged Plants (R. solani; 7 days after sowing, of four seeds per pot)	Plant Growth Stage (R. solani; scale 1-4, 7 days)	Stand (No of plants per acre) at 11 DAP (Rhizoctonia) [plants per acre]	Stand (No of plants per acre) at 16 DAP (Rhizoctonia) [plants per acre]	Stand (No of plants per acre) at 49 DAP (Rhizoctonia) [plants per acre]	Total # Diseased per plot (187.5 ft^2 per plot area) (Rhizoctonia)	Vigor Rating (1-5: 1 = worst, 5 = best) (Rhizoctonia)
COCC(=O)N(c1c(C)cccc1C)C(C)C(=O)OC (centres unmarked) [Metalaxyl]	12.55	5	4.35	–	–	–	–	–	–	–	–
N#Cc1c[nH]cc1-c1cccc2c1OC(F)(F)O2 [Fludioxonil]	–	–	–	3.0^F	2.0^B	2.2^B	2614	20038	16939	7.3	1.8
